According to the CheMixHub viscosity set:

Assay: xn = mol fraction of the nth substance listed

C=Cc1ccccc1 + CCCCCO
viscosity [mPa·s], 101.33 kPa
Conditions	x1 = 0.1003	x1 = 0.1994	x1 = 0.3003	x1 = 0.3977	x1 = 0.4969	x1 = 0.5963	x1 = 0.7027	x1 = 0.8026	x1 = 0.9011
298.15 K	2.791	2.141	1.602	1.32	1.112	0.984	0.859	0.783	0.737
303.15 K	2.472	1.984	1.404	1.175	1.013	0.901	0.793	0.741	0.692
308.15 K	2.166	1.638	1.25	1.046	0.915	0.82	0.722	0.68	0.637

BrC(Br)Br + CCCCO
viscosity [mPa·s], 101.3 kPa
Conditions	x1 = 0.099	x1 = 0.205	x1 = 0.3	x1 = 0.401	x1 = 0.501	x1 = 0.602	x1 = 0.699	x1 = 0.803	x1 = 0.899
298.15 K	2.482	2.339	2.196	2.063	1.955	1.887	1.847	1.817	1.827
303.15 K	2.183	2.07	1.942	1.841	1.768	1.718	1.695	1.684	1.709
308.15 K	1.915	1.828	1.738	1.662	1.607	1.573	1.559	1.564	1.588

C=Cc1ccccc1 + CCCCO
viscosity [mPa·s], 101.33 kPa
Conditions	x1 = 0.0999	x1 = 0.2019	x1 = 0.2994	x1 = 0.3982	x1 = 0.5226	x1 = 0.602	x1 = 0.703	x1 = 0.7942	x1 = 0.8935
298.15 K	1.971	1.644	1.368	1.165	0.969	0.913	0.821	0.772	0.729
303.15 K	1.809	1.47	1.23	1.052	0.885	0.83	0.767	0.721	0.681
308.15 K	1.636	1.327	1.104	0.95	0.811	0.762	0.693	0.66	0.63

CCCCCCCCO + CCCCO
viscosity [mPa·s], 101 kPa
Conditions	298.15 K	308.15 K	318.15 K
x2 = 0.05	7.06	5.06	3.734
x2 = 0.1	6.764	4.867	3.602
x2 = 0.15	6.475	4.678	3.472
x2 = 0.2	6.193	4.492	3.345
x2 = 0.25	5.917	4.309	3.22
x2 = 0.3	5.646	4.129	3.097
x2 = 0.35	5.382	3.953	2.975
x2 = 0.4	5.123	3.779	2.855
x2 = 0.45	4.87	3.608	2.736
x2 = 0.5	4.622	3.44	2.618
x2 = 0.55	4.38	3.275	2.502
x2 = 0.6	4.145	3.113	2.388
x2 = 0.65	3.915	2.955	2.275
x2 = 0.7	3.692	2.8	2.164
x2 = 0.75	3.476	2.649	2.055
x2 = 0.8	3.268	2.502	1.948
x2 = 0.85	3.067	2.36	1.845
x2 = 0.9	2.875	2.223	1.744
x2 = 0.95	2.693	2.092	1.648

CC(C)(C)N + CCCCOC(C)=O
303.15 K, 101 kPa
Conditions	viscosity [mPa·s]
x1 = 0.1472	0.6309
x1 = 0.229	0.6186
x1 = 0.3626	0.5943
x1 = 0.435	0.5852
x1 = 0.5578	0.5545
x1 = 0.6566	0.5313
x1 = 0.7339	0.5091
x1 = 0.8272	0.4861

BrC(Br)Br + CCCO
viscosity [mPa·s], 101 kPa
Conditions	x1 = 0.0998	x1 = 0.1979	x1 = 0.2988	x1 = 0.4005	x1 = 0.5	x1 = 0.5953	x1 = 0.69	x1 = 0.7999	x1 = 0.9007
298.15 K	1.964	1.932	1.879	1.813	1.782	1.767	1.768	1.786	1.853
303.15 K	1.737	1.716	1.681	1.647	1.623	1.621	1.632	1.674	1.734
308.15 K	1.543	1.528	1.506	1.481	1.481	1.49	1.505	1.559	1.618
313.15 K	1.363	1.363	1.354	1.339	1.352	1.379	1.393	1.448	1.515

C=Cc1ccccc1 + CCCO
298.15 K, 101.33 kPa
Conditions	viscosity [mPa·s]
x1 = 0.0999	1.594
x1 = 0.1997	1.326
x1 = 0.298	1.153
x1 = 0.3952	1.011
x1 = 0.4985	0.892
x1 = 0.6022	0.815
x1 = 0.6984	0.762
x1 = 0.7985	0.727
x1 = 0.9019	0.707

CCC(C)(C)OC + CCCO
298.15 K, 101.33 kPa
Conditions	viscosity [mPa·s]
x1 = 0.0142	1.889
x1 = 0.0405	1.759
x1 = 0.0642	1.647
x1 = 0.0889	1.548
x1 = 0.1148	1.461
x1 = 0.152	1.33
x1 = 0.2075	1.18
x1 = 0.2876	1.002
x1 = 0.289	0.999
x1 = 0.3381	0.912
x1 = 0.3924	0.833
x1 = 0.4452	0.767
x1 = 0.489	0.72
x1 = 0.5363	0.677
x1 = 0.5867	0.633
x1 = 0.645	0.594
x1 = 0.6933	0.564
x1 = 0.7588	0.53
x1 = 0.8347	0.496
x1 = 0.9093	0.455
x1 = 0.947	0.454

CCCCCCCCO + CCCO
viscosity [mPa·s], 101 kPa
Conditions	298.15 K	308.15 K	318.15 K
x2 = 0.05	7.025	4.92	3.71
x2 = 0.1	6.694	4.637	3.555
x2 = 0.15	6.37	4.394	3.406
x2 = 0.2	6.052	4.183	3.261
x2 = 0.25	5.742	3.995	3.12
x2 = 0.3	5.438	3.824	2.982
x2 = 0.35	5.141	3.663	2.847
x2 = 0.4	4.851	3.507	2.713
x2 = 0.45	4.568	3.353	2.581
x2 = 0.5	4.291	3.197	2.45
x2 = 0.55	4.021	3.036	2.32
x2 = 0.6	3.758	2.869	2.191
x2 = 0.65	3.501	2.696	2.063
x2 = 0.7	3.249	2.517	1.936
x2 = 0.75	3.003	2.333	1.811
x2 = 0.8	2.762	2.147	1.687
x2 = 0.85	2.526	1.962	1.565
x2 = 0.9	2.294	1.782	1.445
x2 = 0.95	2.065	1.612	1.329

CC(=O)c1ccc(Cl)cc1 + CCNc1ccccc1
303.15 K, 100 kPa
Conditions	viscosity [mPa·s]
x2 = 0.0798	2.295
x2 = 0.1568	2.242
x2 = 0.2321	2.191
x2 = 0.2989	2.147
x2 = 0.3614	2.106
x2 = 0.4467	2.051
x2 = 0.5163	2.008
x2 = 0.5841	1.967
x2 = 0.6601	1.922
x2 = 0.7245	1.885
x2 = 0.7874	1.85
x2 = 0.8487	1.818
x2 = 0.9042	1.788

CC#N + CCO
viscosity [mPa·s]
Conditions	293.15 K	298.15 K	303.15 K	308.15 K	313.15 K
101 kPa, x1 = 0.0898	–	0.87	0.736	0.632	–
101 kPa, x1 = 0.187	–	0.71	0.606	0.523	–
101 kPa, x1 = 0.2973	–	0.594	0.518	0.454	–
101 kPa, x1 = 0.396	–	0.517	0.455	0.405	–
101 kPa, x1 = 0.4843	–	0.463	0.409	0.364	–
101 kPa, x1 = 0.5987	–	0.416	0.37	0.334	–
101 kPa, x1 = 0.7114	–	0.376	0.342	0.309	–
101 kPa, x1 = 0.8072	–	0.357	0.325	0.298	–
101 kPa, x1 = 0.9139	–	0.345	0.314	0.29	–
101.3 kPa, x1 = 0.1107	–	0.85	0.779	0.715	0.656
101.3 kPa, x1 = 0.2192	–	0.693	0.642	0.589	0.542
101.3 kPa, x1 = 0.3249	–	0.584	0.545	0.499	0.467
101.3 kPa, x1 = 0.4279	–	0.506	0.473	0.444	0.417
101.3 kPa, x1 = 0.5288	–	0.458	0.428	0.405	0.38
101.3 kPa, x1 = 0.6267	–	0.414	0.391	0.377	0.352
101.3 kPa, x1 = 0.7236	–	0.392	0.366	0.347	0.331
101.3 kPa, x1 = 0.8179	–	0.37	0.349	0.333	0.316
101.3 kPa, x1 = 0.9099	–	0.354	0.336	0.317	0.301
101.33 kPa, x1 = 0.04	1.12	–	–	–	–
101.33 kPa, x1 = 0.1	0.9979	–	–	–	–
101.33 kPa, x1 = 0.12	0.939	–	–	–	–
101.33 kPa, x1 = 0.17	0.9065	–	–	–	–
101.33 kPa, x1 = 0.28	0.7033	–	–	–	–
101.33 kPa, x1 = 0.33	0.6415	–	–	–	–
101.33 kPa, x1 = 0.43	0.5585	–	–	–	–
101.33 kPa, x1 = 0.67	0.4418	–	–	–	–
101.33 kPa, x1 = 0.83	0.4001	–	–	–	–
